From patent publication US20230183265A1, “Crystal Form of Macrocyclic Tyrosine Kinase Inhibitor and Preparation Method therefor” (SHANDONG XUANZHU PHARMA CO., LTD., priority 2020, published 2023)
Each block holds one compound with its values, some of them ahead of it.

Experiments:
[1] = Hygroscopicity test of crystal form II; type: physicochemical
Procedure: 2. Hygroscopicity Test of Crystal Form II
Test sample: the crystal form II of the compound represented by Formula (I).
Test method: it was determined according to the general rule 9103 (guidelines of drug hygroscopicity test) of the Chinese Pharmacopoeia (2015 Edition, Part IV): the test sample was placed under the condition of 25° C. and RH80% for 24 h (a sample bottle was placed under this condition for 24 h in advance), and results were shown in Table 2: […]

[2] = Stability test of crystal form II; type: physicochemical
Procedure: Test sample: the crystal form II of the compound represented by Formula (I)
Test method: a suitable amount of the test samples was respectively weighed, and the appearance, moisture, content, related substances, XRD, and DSC of the test samples were investigated after being placed under the following conditions. The placing conditions were as follows.
Under the conditions of 60° C.±2° C., or of 25° C. RH92.5%, it was placed for 10 days, opened/closed, and a sample was taken for testing on the 10th day (the opened package is a flat weighing bottle, and the closed package is a low-density polyethylene bag or low-density polyethylene bag+composite film bag.
Under the conditions of 40° C. RH75%, it was placed for one month, opened/closed, and a sample was taken for testing after one month (the opened package is the flat weighing bottle, and the closed package is the low-density polyethylene bag or low-density polyethylene bag+composite film bag).
Moisture: it was determined according to the first 2 coulometric titration of the general rule 0832 (moisture determination) of the Chinese Pharmacopoeia (2015 Edition, Part IV).
XRD: it was determined according to the general rule 0451 (X-ray diffraction) of the Chinese Pharmacopoeia (2015 Edition, Part IV).
DSC: it was determined at a heating rate of 3° C./min, from 100° C. to 200° C.
Related substances and content: it was determined according to the general rule 0512 (HPLC) of the Chinese Pharmacopoeia (2015 Edition, Part IV).

[3] = test system: xenograft tumor of BaF3 LMNA-NTRK1-G595R stably transfected cell line; test: Efficacy study on BaF3 LMNA-NTRK1-G595R stable cell strain subcutaneous xenograft model; type: in vivo, mouse (NOD-SCID); details: bid, p.o., 7 days
Procedure: Test substance: the compound represented by Formula (I), prepared according to the method in Embodiment 1.
A BaF3LMNA-NTRK1-G595R stably transfected cell line resuspended in a RPM11640 serum-free medium was inoculated subcutaneously on a right scapula of a mouse (nonobese diabetic-severe combined immunodeficiency disease (NOD-SCID)) at 1×10^6 cells/mouse (0.1 ml/mouse).
3.2 Grouping Administration
While the average tumor volume was about 500 mm^3, it was randomly divided into a vehicle group, a compound represented by Formula (I) (10/5/3/1 mg/kg, bid) group and a LOXO-195 group (30/10/3 mg/kg, bid).
3.3 Experimental Evaluation Index
1) Tumor growth inhibition rate TGI (%) • TGI (%)=(1−T/C)×100%
2) Tumor volume ratio of Treatment group/Control group TIC (%) • TIC (%)=TRTV/CRTV×100% • RTV=Vt/V0, herein Vt is the tumor volume on the t-th day after grouping, and V0 is the tumor volume on the day of grouping; TRTV: the average relative tumor volume in the administration group; and CRTV: the average relative tumor volume in the vehicle control group.

[4] = test system: Ba/F3 SLC34A2/ROS1-G2032R cell line; test: In vitro cytological inhibitory activity (Celltiter-Glo assay); type: cell-based; details: Mus musculus, BaF3, 72 hours
Procedure: (§1) Test compound: the compound represented by Formula (I), prepared according to the method in Embodiment 1.
The meanings of cell lines used in the experiment are as follows: • Ba/F3 SLC34A2/ROS1-G2032R cell line: • A stably expressed cell line of Ba/F3 cells transfected with SLC34A2/ROS1-G2032R.
Experimental Method (Celltiter-Glo Assay)
(§2) 1. Cell Culture and Inoculation
(§3) All cells were suspension cells, and all culture mediums were RPM1-1640+10% FBS. The cells were tested in a logarithmic growth phase.
(§4) The cells in the logarithmic growth phase were collected and counted by a platelet counter. A trypan blue exclusion method was used to detect the cell activity, as to ensure that the cell activity was above 90%. It was adjusted to the appropriate concentration, and 90 μL of cell suspension was respectively added to a 96-well plate.
(§5) 2. Preparation of Test Compound
2.2 Preparation of Working Stock Solution of Test Compound […]
A CTG reagent was molten and a cell plate was balanced to a room temperature for 30 minutes. […] The light signal value was read by a multifunctional microplate reader.
1) Cell survival rate (%)=(test compound well reading−blank well reading)/(DMSO solvent control well reading−blank well reading)×100%; and […]

[5] = test system: Ba/F3 ETV6-NTRK3-G623R cell line; test: In vitro cytological inhibitory activity (CelltiterGlo assay); type: cell-based; details: Mus musculus, BaF3, 72 hours
Excerpt: as §1
(§6) The meanings of cell lines used in the experiment are as follows: • Ba/F3 LMNA-NTRK1-G595R cell line: • A stably expressed cell line of Ba/F3 cells transfected with LMNA-NTRK1 G595R; and • Ba/F3 ETV6-NTRK3-G623R cell line: • A stably expressed cell line of Ba/F3 cells transfected with ETV6-NTRK3-G623R.
(§7) Experimental Method (CelltiterGlo Assay)
as §2, §3
as §4, with “activity,” for “activity, as”
as §5
(§8) “M” means “mol/L”, “mM” means “mmol/L”, and “μM” means “μmol/L”. […]
(§9) A CellTiter-Glo luminescent cell viability assay (CTG) reagent was molten and a cell plate was balanced to a room temperature for 30 minutes. […] The light signal value was read by a multifunctional microplate reader.
(§10) 1) Inhibition rate (%)=(DMSO solvent control well reading−test compound well reading)/(DMSO solvent control well reading−blank well reading)×[…]; and […]

[6] = test system: Ba/F3 LMNA-NTRK1-G595R cell line; test: as above; type: cell-based; details: Mus musculus, BaF3, 72 hours
Excerpt: as §1, §6, §7, §2, §3
as §4, with “activity,” for “activity, as”
as §5, §8, §9, §10

[7] = 25° C. RH 92.5% 10 days, Opened
[8] = 25° C. RH 92.5% 10 days, Polyethylene bag
[9] = 25° C. RH 92.5% 10 days, Polyethylene bag + composite film bag
[10] = 40° C. RH 75% 1M, Polyethylene bag
[11] = 40° C. RH 75% 1M, Polyethylene bag + composite film bag
[12] = 60° C. 10 days, Polyethylene bag
[13] = 60° C. 10 days, Polyethylene bag + composite film bag

Moisture absorption weight gain ([1]; 25° C. RH80% placing for 1 day): 0.002%
hygroscopicity (in words) ([1]; 25° C. and RH80% for 24 h): no or almost no hygroscopicity
Appearance ([2]; 0 day): Off-white
Content ([2]; 0 day): 100.4%
DSC ([2]; 0 day): 162.32 °C
Moisture ([2]; 0 day): 0.088%
Total related substance ([2]; 0 day): 0.09%
Appearance [2, 7]: Off-white
Content [2, 7]: 99.6%
DSC [2, 7]: 162.23 °C
Moisture [2, 7]: 0.13%
Total related substance [2, 7]: 0.11%
XRD [2, 7]: Same
Appearance [2, 8]: Off-white
Content [2, 8]: 99.5%
DSC [2, 8]: 162.23 °C
Moisture [2, 8]: 0.11%
Total related substance [2, 8]: 0.10%
XRD [2, 8]: Same
Appearance [2, 9]: Off-white
Content [2, 9]: 99.3%
DSC [2, 9]: 162.27 °C
Moisture [2, 9]: 0.11%
Total related substance [2, 9]: 0.11%
XRD [2, 9]: Same
Appearance ([2]; 40° C. RH 75% 1M, Opened): Off-white
Content ([2]; 40° C. RH 75% 1M, Opened): 100.8%
DSC ([2]; 40° C. RH 75% 1M, Opened): 162.29 °C
Moisture ([2]; 40° C. RH 75% 1M, Opened): 0.026%
Total related substance ([2]; 40° C. RH 75% 1M, Opened): 0.10%
XRD ([2]; 40° C. RH 75% 1M, Opened): Same
Appearance [2, 10]: Off-white
Content [2, 10]: 101.0%
DSC [2, 10]: 162.18 °C
Moisture [2, 10]: 0.033%
Total related substance [2, 10]: 0.10%
XRD [2, 10]: Same
Appearance [2, 11]: Off-white
Content [2, 11]: 101.0%
DSC [2, 11]: 162.35 °C
Moisture [2, 11]: 0.036%
Total related substance [2, 11]: 0.10%
XRD [2, 11]: Same
Appearance ([2]; 60° C. 10 days, Opened): Off-white
Content ([2]; 60° C. 10 days, Opened): 99.8%
DSC ([2]; 60° C. 10 days, Opened): 162.24 °C
Moisture ([2]; 60° C. 10 days, Opened): 0.18%
Total related substance ([2]; 60° C. 10 days, Opened): 0.11%
XRD ([2]; 60° C. 10 days, Opened): Same
Appearance [2, 12]: Off-white
Content [2, 12]: 100.0%
DSC [2, 12]: 162.26 °C
Moisture [2, 12]: 0.15%
Total related substance [2, 12]: 0.11%
XRD [2, 12]: Same
Appearance [2, 13]: Off-white
Content [2, 13]: 99.7%
DSC [2, 13]: 162.23 °C
Moisture [2, 13]: 0.13%
Total related substance [2, 13]: 0.10%
XRD [2, 13]: Same
Compound: C[C@@H]1COc2ncc(F)cc2[C@H]2CCCN2c2ccc3ncn(c3n2)C(=O)N1 [Crystal form II, (2^2R,6R)-3^5-fluoro-6-methyl-1^3H-4-oxa-7-aza-1(5,3)-imidazo[4,5-b]pyridina-3(3,2)-pyridina-2(1,2)-p yrrolidinacyclooctaphan-8-one]
stability of the crystal form (in words) ([2]; 60° C. 10 days, 25° C. RH92.5% 10 days, 40° C. RH75% 1 month, opened/closed package): the stability of the crystal form is good

Compound: C[C@@H]1CCc2ncc(F)cc2[C@H]2CCCN2c2ccn3ncc(c3n2)C(=O)N1 [LOXO-195, reference compound]
T/C ([3]; experiment 1, 3 mg/Kg): 93.6%
TGI ([3]; experiment 1, 3 mg/Kg): 6.4%
T/C ([3]; experiment 1, 10 mg/Kg): 63.1%
TGI ([3]; experiment 1, 10 mg/Kg): 36.9%
T/C ([3]; experiment 2, 30 mg/Kg): 0%
TGI ([3]; experiment 2, 30 mg/Kg): 100%

IC50 [4]: 2.3 nM
IC50 [5]: 1 nM
IC50 [6]: 0.6 nM
Compound: C[C@@H]1COc2ncc(F)cc2[C@H]2CCCN2c2ccc3ncn(c3n2)C(=O)N1 [Compound represented by Formula (I), (2^2R, 6R)-3^5-fluoro-6-methyl-1^3H-4-oxa-7-aza-1(5,3)-imidazo[4,5-b]pyridina-3(3,2)-pyridina-2(1,2)-pyrrolidina cyclooctaphan-8-one]
T/C ([3]; experiment 1, 3 mg/Kg): 73.2%
TGI ([3]; experiment 1, 3 mg/Kg): 26.8%
T/C ([3]; experiment 2, 1 mg/Kg): 53.7%
TGI ([3]; experiment 2, 1 mg/Kg): 46.3%
T/C ([3]; experiment 2, 5 mg/Kg): 0%
TGI ([3]; experiment 2, 5 mg/Kg): 100%
T/C ([3]; experiment 2, 10 mg/Kg): 0%
TGI ([3]; experiment 2, 10 mg/Kg): 100%
